Laboratory results: patent US8735406B2, “8-oxodihydropurine derivative” (Dainippon Sumitomo Pharma Co., Ltd., priority 2009, dated 2014)
Where two headings read alike, the source gives them in different places.

Target: T1, FAAH (Rattus norvegicus, UniProt P97612)
T1 construct: Preparation of Rat Brain Membranes Preparations (FAAH Enzyme Solution); from tissue; host or cells: rat cerebrum (brain membrane preparation)
T1 sequence (P97612 1-579): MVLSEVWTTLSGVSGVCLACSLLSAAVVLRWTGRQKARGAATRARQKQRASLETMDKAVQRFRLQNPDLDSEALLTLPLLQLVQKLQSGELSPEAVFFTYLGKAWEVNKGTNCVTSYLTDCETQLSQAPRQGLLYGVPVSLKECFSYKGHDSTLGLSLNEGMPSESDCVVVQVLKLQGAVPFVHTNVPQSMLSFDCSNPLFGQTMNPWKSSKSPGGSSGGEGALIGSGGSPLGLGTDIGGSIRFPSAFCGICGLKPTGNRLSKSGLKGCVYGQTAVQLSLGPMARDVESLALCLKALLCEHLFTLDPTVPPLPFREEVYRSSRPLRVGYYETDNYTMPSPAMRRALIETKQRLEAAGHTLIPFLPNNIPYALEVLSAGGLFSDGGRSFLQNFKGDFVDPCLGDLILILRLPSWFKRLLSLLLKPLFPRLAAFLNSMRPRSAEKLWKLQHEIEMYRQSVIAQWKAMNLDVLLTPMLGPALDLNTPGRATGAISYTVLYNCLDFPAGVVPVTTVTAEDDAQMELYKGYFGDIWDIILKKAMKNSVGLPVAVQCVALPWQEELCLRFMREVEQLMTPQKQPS
Test: Determination of FAAH inhibitory activity in rat (rat brain membrane preparations, [3H]-anandamide hydrolysis)
Format: biochemical
Details: for IC50: read-out: FAAH Inhibition IC50
Experimental: Determination of FAAH Inhibitory Activity in Rat
The preparation of rat brain membranes preparations and the determination of FAAH inhibitory activity were carried out according to the Jonsson et al. method [Br. J. Pharmacol., 133, 1263 (2001)].
(1) Preparation of Rat Brain Membranes Preparations (FAAH Enzyme Solution)
The cerebrum was extracted from rats and was freeze-stored at −80° C. To the frozen cerebrum was added 4° C. enzyme homogenization buffer (20 mM HEPES-buffer pH 7.0, 1 mM MgCl2) and the mixture was homogenized using a homogenizer in ice and the homogenates were centrifuged (36,000×g for 20 minutes). After repeating operations of homogenization and centrifugation, the tissue pellets were re-suspended with 4° C. enzyme homogenization buffer. The re-suspensions were incubated at 37° C. for 15 minutes and were centrifuged (36,000×g for 20 minutes), and the resulting tissue membranes were then re-suspended with enzyme solution preparation buffer (50 mM Tris-HCl buffer pH 7.4, 1 mM EDTA, 3 mM MgCl2). The protein concentration in the resulting membrane preparations were determined according to a colorimetry method (BCA Protein Assay: Pierce Inc.) and the preparations were freeze-stored at −80° C. until used for assay.
(2) Screening of Substances for Inhibiting FAAH Activity
To the above membrane preparations (final concentration 100 μg/mL) were added a solution of test substances in DMSO (final concentration in DMSO 1%) and an assay buffer (for final preparation; 22 mM Tris-HCl (pH 7.6), 1.4 mM EDTA, 1.5% BSA, 0.6 mM MgCl2) and the resulting mixtures were preincubated at 37° C. for 10 minutes. Thereto was added a substrate solution (for final preparation; 2 nM [^3H]-Anandamide (American Radiolabeled Chemicals Inc.)+2 μM Anandamide (Sigma-Aldrich Co.)) (final assay volume of 200 μL) and the resulting mixtures were incubated at 37° C. for 10 minutes. Here in control experiment, DMSO was added instead of the solution of test substance in DMSO. Also in blank experiment, DMSO was added instead of the solution of test substance in DMSO and an enzyme solution preparation buffer was also added instead of the membrane preparations. After the incubation, thereto was added a 400 μL ice-cooled solution of chloroform and methanol (1:1 ratio by volume) and the resulting mixtures were stirred. An ethanolamine (ethanolamine-1-[^3H]) as a decomposed product was separated into an upper layer (water/methanol layer) by centrifugation (1,000×g for 10 minutes). The upper layer 200 μL was transferred into 96 well Deepwell Luma Plate-96 (PerkinElmer Inc.) and the radioactivity was measured by microplate scintillation counter (TopCount NXT™: […].). The substances showing a lower measured value compared to those of control were selected as the compound having a FAAH inhibitory activity.
(3) Determination of IC50 Value
The test substances were prepared such that the final concentration of the compounds is within the range of 0.1 nM to 1 μM and were then examined on the effect on FAAH activity according to the above-mentioned protocol.

[1] = at 100 nM, rat brain membrane preparations, read-out: FAAH Inhibition Inhibition Rate at 100 nM
[2] = rat brain membrane preparations
[3] = rat brain membrane preparations, 100 nM test substance, read-out: FAAH Inhibition, Inhibition Rate at 100 nM
[4] = rat brain membrane preparations, test substance 0.1 nM to 1 μM

Which results are given for `CCCc1ncc2c(n1)n(C(=O)N1CC(c3ccccc3)C1)c(=O)n2C` [Example 637]?
inhibition at 0.1 µM [1]: 102%; IC50 [2]: 7 nM

For `CN(C)C(=O)n1c(=O)n(C)c2cnc(CCc3ccc(C(F)(F)F)cc3)nc21` [Example 540, N,N,7-Trimethyl-8-oxo-2-{2-[4-(trifluoromethyl)phenyl]ethyl}-7,8-dihydro-9H-purine-9-carboxamide], which inhibition at 0.1 µM [3] is on record?
The inhibition at 0.1 µM was 88%.

What about the IC50 [4] of the same molecule?
Its IC50 is 17 nM.

For `Cc1cccc(Cc2ncc3c(n2)n(C)c(=O)n3C(=O)N2CCC2)c1` [compound 371], which inhibition at 0.1 µM [3] is on record?
Its inhibition at 0.1 µM is 43%.

And the IC50 [4]?
Its IC50 is 149 nM.

What does the source list for `CCOc1cccc(CCc2ncc3c(n2)n(C(=O)N(C)C)c(=O)n3C)c1` [compound 534]?
inhibition at 0.1 µM [3]: 47%; IC50 [4]: 131 nM

For `Cn1c(=O)n(C(=O)N2CCCC2)c2cnc(Cc3cc(F)cc(F)c3)nc21` [Example 270, 2-(3,5-Difluorobenzyl)-9-methyl-7-(pyrrolidin-1-ylcarbonyl)-7,9-dihydro-8H-purine-8-one], which inhibition at 0.1 µM [3] is on record?
The inhibition at 0.1 µM was 96%.

And the IC50 [4]?
The IC50 was 32 nM.

Which inhibition at 0.1 µM [3] does the source give for `Cc1ccc(N2CCN(C(=O)n3c(=O)n(C)c4nc(-c5ccccc5)ncc43)CC2)cc1` [Example 128, 9-Methyl-7-{[4-(4-methylphenyl)piperazin-1-yl]carbonyl}-2-phenyl-7,9-dihydro-8H-purine-8-one] here?
The inhibition at 0.1 µM was 99%.

What about the IC50 [4] of the same molecule?
The IC50 was 7 nM.

Which results are given for `CCCc1ncc2c(n1)n(C(=O)N1CC(c3ccc(F)cc3)C1)c(=O)n2C` [Example 636]?
inhibition at 0.1 µM [1]: 94%; IC50 [2]: 78 nM

`Cn1c(=O)n(C(=O)N2CCC2)c2cnc(Cc3ccccc3F)nc21` [compound 374] was tested. Which inhibition at 0.1 µM [3] did it give?
Its inhibition at 0.1 µM is 85%.

What about the IC50 [4] of the same molecule?
Its IC50 is 12 nM.

`COc1cccc(-c2ncc3c(n2)n(C)c(=O)n3C(=O)N(C)CCc2cccc(F)c2)c1` [Example 75, N-[2-(3-Fluorophenyl)ethyl]-2-(3-methoxyphenyl)-N,9-dimethyl-8-oxo-8,9-dihydro-7H-purine-7-carboxamide] was tested. Which IC50 [4] did it give?
The IC50 was less than 1 nM.

What about the inhibition at 0.1 µM (read-out: FAAH Inhibition, Inhibition Rate at 100 nM) of the same molecule?
Its inhibition at 0.1 µM is 103%.

For `CCCOCc1ncc2c(n1)n(C)c(=O)n2C(=O)N1CC(c2ccc(F)cc2)C1` [compound 470], which inhibition at 0.1 µM [3] is on record?
The inhibition at 0.1 µM was 103%.

What about the IC50 [4] of the same molecule?
Its IC50 is 2 nM.

Which results are given for `COc1cccc(-c2ncc3c(n2)n(C)c(=O)n3C(=O)N2CCN(c3cccc(C)c3)CC2)c1` [Example 139, 2-(3-Methoxyphenyl)-9-methyl-7-{[4-(3-methylphenyl)piperazin-1-yl]carbonyl}-7,9-dihydro-8H-purine-8-one]?
inhibition at 0.1 µM [3]: 99%; IC50 [4]: 6 nM

`CN(C)C(=O)n1c(=O)n(C)c2cnc(CCc3ccccc3F)nc21` [compound 499] was tested. Which inhibition at 0.1 µM [3] did it give?
The inhibition at 0.1 µM was 91%.

What about the IC50 [4] of the same molecule?
Its IC50 is 28 nM.

For `CC(=O)c1cccc(-c2ncc3c(n2)n(C(=O)N2CCCC2)c(=O)n3C)c1` [Example 238, 2-(3-Acetylphenyl)-7-methyl-9-(pyrrolidin-1-ylcarbonyl)-7,9-dihydro-8H-purine-8-one], which inhibition at 0.1 µM [3] is on record?
Its inhibition at 0.1 µM is 84%.

And the IC50 [4]?
Its IC50 is 58 nM.

How did the inhibition at 0.1 µM [3] turn out when `Cn1c(=O)n(C(=O)N2CCCC2)c2nc(-c3ccccc3F)ncc21` [compound 225] was run?
The inhibition at 0.1 µM was 57%.

And the IC50 [4]?
Its IC50 is 89 nM.

Which results are given for `COc1cccc(-c2ncc3c(n2)n(C)c(=O)n3C(=O)N(C)Cc2cccc(Cl)c2)c1` [Example 79, N-(3-Chlorobenzyl)-2-(3-methoxyphenyl)-N,9-dimethyl-8-oxo-8,9-dihydro-7H-purine-7-carboxamide]?
inhibition at 0.1 µM [3]: 87%; IC50 [4]: 51 nM

For `COc1cccc(-c2ncc3c(n2)n(C)c(=O)n3C(=O)N2CCC(Cc3ccccc3)CC2)c1` [Example 66, 7-[(4-Benzylpiperidin-1-yl)carbonyl]-2-(3-methoxyphenyl)-9-methyl-7,9-dihydro-8H-purine-8-one], which inhibition at 0.1 µM [3] is on record?
The inhibition at 0.1 µM was 93%.

What about the IC50 [4] of the same molecule?
The IC50 was 46 nM.

How did the inhibition at 0.1 µM [3] turn out when `CCN(C)C(=O)n1c(=O)n(C)c2cnc(-c3cccc(Cl)c3)nc21` [compound 342] was run?
The inhibition at 0.1 µM was 76%.

What about the IC50 [4] of the same molecule?
Its IC50 is 52 nM.

For `Cn1c(=O)n(C(=O)N2CCCC2)c2nc(-c3ccc(-c4ccccc4)cc3)ncc21` [Example 239, 2-(Biphenyl-4-yl)-7-methyl-9-(pyrrolidin-1-ylcarbonyl)-7,9-dihydro-8H-purine-8-one], which inhibition at 0.1 µM [3] is on record?
Its inhibition at 0.1 µM is 89%.

And the IC50 [4]?
The IC50 was 52 nM.

For `Cn1c(=O)n(C(=O)N2CCCC2)c2nc(/C=C/c3ccc(C(F)(F)F)cc3)ncc21` [Example 243, 7-methyl-9-(pyrrolidin-1-ylcarbonyl)-2-{(E)-2-[4-(trifluoromethyl)phenyl]ethenyl}-7,9-dihydro-8H-purine-8-one], which inhibition at 0.1 µM [3] is on record?
Its inhibition at 0.1 µM is 89%.

And the IC50 [4]?
The IC50 was 5 nM.

For `COCc1ncc2c(n1)n(C)c(=O)n2C(=O)N1CC[C@H](Oc2ccccc2)C1` [Example 477], which inhibition at 0.1 µM [3] is on record?
Its inhibition at 0.1 µM is 88%.

And the IC50 [4]?
Its IC50 is 26 nM.

Which results are given for `Cn1c(=O)n(C(=O)N2CCCC2)c2nc(CCc3ccc(C(F)(F)F)cc3)ncc21` [Example 312, 7-methyl-9-(pyrrolidin-1-ylcarbonyl)-2-{2-[4-(trifluoromethyl)phenyl]ethyl}-7,9-dihydro-8H-purine-8-one]?
inhibition at 0.1 µM [3]: 99%; IC50 [4]: 8 nM

Which results are given for `COc1cccc(N2CCN(C(=O)n3c(=O)n(C)c4nc(-c5ccccc5)ncc43)CC2)c1` [Example 121, 7-{[4-(3-Methoxyphenyl)piperazin-1-yl]carbonyl}-9-methyl-2-phenyl-7,9-dihydro-8H-purine-8-one]?
inhibition at 0.1 µM [3]: 98%; IC50 [4]: 42 nM

How did the inhibition at 0.1 µM [3] turn out when `COc1ccc(/C=C/c2ncc3c(n2)n(C)c(=O)n3C(=O)N2CCCC2)cc1` [Example 4, 2-[(E)-2-(4-Methoxyphenyl)ethenyl]-9-methyl-7-(pyrrolidin-1-ylcarbonyl)-7,9-dihydro-8H-purine-8-one] was run?
The inhibition at 0.1 µM was 99%.

And the IC50 [4]?
The IC50 was 10 nM.

What does the source list for `Cn1c(=O)n(C(=O)N2CCCC2)c2cnc(-c3ccnc(F)c3)nc21` [Example 215, 2-(2-Fluoropyridin-4-yl)-9-methyl-7-(pyrrolidin-1-ylcarbonyl)-7,9-dihydro-8H-purine-8-one]?
inhibition at 0.1 µM [3]: 98%; IC50 [4]: 10 nM

For `CCCc1ncc2c(n1)n(C)c(=O)n2C(=O)N1CC(c2cccc(F)c2)C1` [compound 625], which inhibition at 0.1 µM [1] is on record?
The inhibition at 0.1 µM was 104%.

And the IC50 [2]?
The IC50 was 7 nM.

What does the source list for `COc1cccc(-c2ncc3c(n2)n(C)c(=O)n3C(=O)N(C)CCc2ccccn2)c1` [Example 114, 2-(3-Methoxyphenyl)-N,9-dimethyl-8-oxo-N-[2-(pyridin-2-yl)ethyl]-8,9-dihydro-7H-purine-7-carboxamide]?
inhibition at 0.1 µM [3]: 103%; IC50 [4]: 2 nM

How did the inhibition at 0.1 µM [3] turn out when `Cn1c(=O)n(C(=O)N2CCCC2)c2cnc(-c3cc(C(F)(F)F)ccc3F)nc21` [compound 199] was run?
The inhibition at 0.1 µM was 68%.

And the IC50 [4]?
The IC50 was 72 nM.

How did the inhibition at 0.1 µM [1] turn out when `CN(C)C(=O)n1c(=O)n(C)c2cnc(CCCc3ccccc3)nc21` [Example 614] was run?
Its inhibition at 0.1 µM is 81%.

And the IC50 [2]?
Its IC50 is 28 nM.

How did the inhibition at 0.1 µM [3] turn out when `Cn1c(=O)n(C(=O)N2CCC2)c2nc(CCc3ccc(C(F)(F)F)cc3)ncc21` [compound 597] was run?
The inhibition at 0.1 µM was 92%.

And the IC50 [4]?
Its IC50 is 10 nM.

Which inhibition at 0.1 µM [3] does the source give for `Cn1c(=O)n(C(=O)N2CCCC2)c2cnc(Cc3cc(F)ccc3F)nc21` [Example 267, 2-(2,5-Difluorobenzyl)-9-methyl-7-(pyrrolidin-1-ylcarbonyl)-7,9-dihydro-8H-purine-8-one] here?
Its inhibition at 0.1 µM is 99%.

And the IC50 [4]?
The IC50 was 23 nM.
